According to patent US20100021945A1, “DETERMINATION OF CHANGES IN CONCENTRATION” (JACOBS UNIVERSITY BREMEN GGMBH, priority 2006, published 2010):

What was measured:
[1] = Binding constants to the macrocycle by fluorescent dye (DBO-amine) displacement
Protocol: The binding constants were determined in water at a pH of 7 in the presence of 100 μM of DBO-amine and 200 μM of p-sulphonato-calix[4]arene.

[2] = Binding to macrocycle / dapoxyl displacement in the lysine decarboxylase assay; conditions: for binding constant K: cucurbit[7]uril, assay in 10 mM NH4OAc buffer pH 6.0
Excerpt: FIG. 5 is a reaction diagram for the conversion of L-lysine (505, analyte precursor) into cadaverine (503, analyte, removes the fluorescent dye) and CO2 (not shown, most of it escapes from the solution) by L-lysine decarboxylase. Dapoxyl (501) was selected as the fluorescent dye and cucurbit[7]uril (a cation receptor) as the macrocycle, the fluorescence of the dapoxyl (501) being increased by the complexing with cucurbit[7]uril. As a result of conversion of the analyte precursor 505 into the analyte 503, there is a decrease in fluorescence during the enzymatic reaction because more and more dye 501 is removed by the analyte and the increase in the fluorescence of the dapoxyl caused by the macrocycle thus falls off. The cucurbituril acts as a cation receptor which binds the cadaverine analyte 503, which has two positive charges, better than the L-lysine analyte precursor 505, which has a single positive charge (total charge). The schematic representation of the lysine decarboxylase enzyme is again that of the arginase which is used in FIG. 1, because no crystal structure exists for lysine decarboxylase. The representation was produced with the Swiss PdbViewer v3.7 program (http://www.expasy.org/spdbv/).
The reaction was carried out in the presence of 2.5 μM of dapoxyl and 200 μM of cucurbit[7]uril in a 10 mM NH4OAc buffer (pH 6.0). Without any chemical change to the L-lysine, without any radio-active marking, and without any antibodies, the enzymatic reaction could thus be followed easily, directly in solution without any further incubation stages, with the help of a commercially available fluorescence spectrometer (Varian Cary Eclipse, λexc=336 nm, λobs=390 nm in the present case). It can clearly be seen in this case that the binding constants of lysine (K approx. 2000 M^−1) and cadaverine (K>1000000 M^−1) are very different. […] This is not a problem inasmuch as it is generally only the initial speed as it were of an enzymatic reaction which is determined in order to characterise the reaction. […]

arginase = target: T1, arginase (Homo sapiens, UniProt P05089); assay: Arginase inhibitor screening, Hill analysis of fluorescence (DBO-amine/calixarene displacement assay); type: biochemical; conditions: 0.5 mM arginine, 16 μg/ml arginase, water pH 9.5, 100 μM DBO-amine, 200 μM p-sulphonato-calix[4]arene, 6 min incubation
T1 sequence (P05089 1-322): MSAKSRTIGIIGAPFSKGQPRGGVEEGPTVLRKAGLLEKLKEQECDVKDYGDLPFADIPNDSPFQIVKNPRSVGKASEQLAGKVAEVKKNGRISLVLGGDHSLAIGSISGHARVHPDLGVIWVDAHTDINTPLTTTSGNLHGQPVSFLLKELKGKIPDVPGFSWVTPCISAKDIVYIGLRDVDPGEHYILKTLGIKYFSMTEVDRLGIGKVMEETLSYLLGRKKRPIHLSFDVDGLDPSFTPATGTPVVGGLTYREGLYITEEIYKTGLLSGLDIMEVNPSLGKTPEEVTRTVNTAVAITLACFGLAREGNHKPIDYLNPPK
Protocol: What was selected as a fluorescent dye was 1-aminomethyl-2,3-diazabicyclo[2.2.2]oct-2-ene (101, DBO-amine) and p-sulphonato-calix[4]arene (a cation receptor) was used as the macrocycle, the fluorescence of the DBO-amine 101 being quenched by the calixarene.
The reaction was performed in the presence of 100 μM of the fluorescent dye DBO-amine and 200 μM of p-sulphonato-calix[4]arene in water at a pH of 9.5.
For this purpose, 0.5 mM of arginine was reacted with 16 μg/ml of arginase in different concentrations of the respective inhibitors. The solution (water, pH 9.5) also contained 100 μM of DBO-amine and 200 μM of p-sulphonato-calix[4]arene. For the Hill analysis, the intensity of fluorescence was plotted against the logarithm of the inhibitor concentration after an incubation time of 6 minutes.

SMILES | binding constant K [2] | Ki (arginase) [nM] | other results
NC(N)=O [urea] |  |  | binding constant to the macrocycle (in words) ([1]; uncharged molecule with a cation receptor, binding can be ignored): extremely low binding constant
N=C(N)NCCC[C@H](N)C(=O)O [arginine, L-arginine] |  |  | binding constant K to the macrocycle ([1]; water, pH 7, 100 μM DBO-amine, 200 μM p-sulphonato-calix[4]arene): 3170 ± 130 M⁻¹
NCCCC[C@H](N)C(=O)O [lysine, L-lysine] | approx. 2000 M^−1 |  | 
N[C@@H](CCCCB(O)O)C(=O)O [ABH, 2(s)-amino-6-boronohexanoic acid] |  | 1000 ± 100 | 
NCCCCCN [cadaverine] | > 1000000 M⁻¹ |  | concentration enough to remove all the fluorescent dye from the macrocycle ([2]; 2.5 μM dapoxyl, 200 μM cucurbit[7]uril, 10 mM NH4OAc buffer pH 6.0): 100 μm
N[C@@H](CSCCB(O)O)C(=O)O [BEC, S-(2-boronethyl)-L-cysteine] |  | 4900 ± 500 | 
